Organism: Rattus norvegicus
Assay: DrugMatrix - Regimen: Daily Repeat
Type: toxicity, organism-based, Sprague-Dawley
Design: regimen Daily Repeat, gender Male, age 6-8 weeks
Conditions: in vivo, iv, vehicle 100 % SALINE; for ABSOLUTE BASOPHIL / ABSOLUTE EOSINOPHIL / ABSOLUTE LYMPHOCYTE / ABSOLUTE MONOCYTE / ABSOLUTE SEGMENTED NEUTROPHIL / BASOPHIL / EOSINOPHIL / ERYTHROCYTE COUNT / HEMATOCRIT / HEMOGLOBIN / LEUKOCYTE COUNT / LYMPHOCYTE / MEAN CORPUSCULAR HEMOGLOBIN / MEAN CORPUSCULAR HEMOGLOBIN CONCENTRATION / MEAN CORPUSCULAR VOLUME / MONOCYTE / NEUTROPHIL / NUCLEATED RED BLOOD CELLS / PLATELET COUNT: tissue Blood; for ALANINE AMINOTRANSFERASE / ALBUMIN / ALKALINE PHOSPHATASE / ASPARTATE AMINOTRANSFERASE / BLOOD UREA NITROGEN / CARBON DIOXIDE / CHOLESTEROL / CREATINE PHOSPHOKINASE / CREATININE / GLUCOSE / LACTATE DEHYDROGENASE / LIPASE / PHOSPHORUS / POTASSIUM / SODIUM / TOTAL BILIRUBIN / TOTAL PROTEIN / URIC ACID: tissue Plasma
[1] = 18 mg/kg, 120 h, dose level High, time 5 day
[2] = […], 72 h, dose 7.5 mg/Kg, dose level Low, time 3 day
[3] = […], 120 h, dose 7.5 mg/Kg, dose level Low, time 5 day

N=C(N)c1ccc(OCCCCCOc2ccc(C(=N)N)cc2)cc1 [PENTAMIDINE]
ABSOLUTE BASOPHIL [1]: 0 CELLS/uL | ABSOLUTE EOSINOPHIL [1]: 0 CELLS/uL | ABSOLUTE LYMPHOCYTE [1]: 15017 CELLS/uL | ABSOLUTE MONOCYTE [1]: 444.33 CELLS/uL | ABSOLUTE SEGMENTED NEUTROPHIL [1]: 972 CELLS/uL | BASOPHIL [1]: 0% | EOSINOPHIL [1]: 0% | ERYTHROCYTE COUNT [1]: 6.15 x10E6/uL | HEMATOCRIT [1]: 37.9% | HEMOGLOBIN [1]: 14.2 G/DL | LEUKOCYTE COUNT [1]: 16.43 x10E3/uL | LYMPHOCYTE [1]: 91.33% | MEAN CORPUSCULAR HEMOGLOBIN [1]: 23.07 pg | MEAN CORPUSCULAR HEMOGLOBIN CONCENTRATION [1]: 37.5 G/DL | MEAN CORPUSCULAR VOLUME [1]: 61.53 fL | MONOCYTE [1]: 2.67% | NEUTROPHIL [1]: 6% | NUCLEATED RED BLOOD CELLS [1]: 0 /100WBC | PLATELET COUNT [1]: 1455 x10E3/uL | ALANINE AMINOTRANSFERASE [1]: 44.33 u/L | ALBUMIN [1]: 4.3 G/DL | ALKALINE PHOSPHATASE [1]: 288.33 u/L | ASPARTATE AMINOTRANSFERASE [1]: 71 u/L | BLOOD UREA NITROGEN [1]: 13.67 mg/dL | CARBON DIOXIDE [1]: 26.67 mmol/L | CHOLESTEROL [1]: 57 mg/dL | CREATINE PHOSPHOKINASE [1]: 246.67 u/L | CREATININE [1]: 0.22 mg/dL | GLUCOSE [1]: 166.33 mg/dL | LACTATE DEHYDROGENASE [1]: 175 u/L | LIPASE [1]: 8.67 u/L | PHOSPHORUS [1]: 11.6 mg/dL | POTASSIUM [1]: 5.78 MEQ/L | SODIUM [1]: 146.7 MEQ/L | TOTAL BILIRUBIN [1]: 0.2 mg/dL | TOTAL PROTEIN [1]: 6.13 G/DL | URIC ACID [1]: 1.93 mg/dL | ABSOLUTE BASOPHIL [2]: 0 CELLS/uL | ABSOLUTE EOSINOPHIL [2]: 0 CELLS/uL | ABSOLUTE LYMPHOCYTE [2]: 12540 CELLS/uL | ABSOLUTE MONOCYTE [2]: 234 CELLS/uL | ABSOLUTE SEGMENTED NEUTROPHIL [2]: 1759.33 CELLS/uL | BASOPHIL [2]: 0% | EOSINOPHIL [2]: 0% | ERYTHROCYTE COUNT [2]: 5.88 x10E6/uL | HEMATOCRIT [2]: 37.37% | HEMOGLOBIN [2]: 14.03 G/DL | LEUKOCYTE COUNT [2]: 14.53 x10E3/uL | LYMPHOCYTE [2]: 86.67% | MEAN CORPUSCULAR HEMOGLOBIN [2]: 23.9 pg | MEAN CORPUSCULAR HEMOGLOBIN CONCENTRATION [2]: 37.53 G/DL | MEAN CORPUSCULAR VOLUME [2]: 63.63 fL | MONOCYTE [2]: 1.67% | NEUTROPHIL [2]: 11.67% | NUCLEATED RED BLOOD CELLS [2]: 0 /100WBC | PLATELET COUNT [2]: 1241.67 x10E3/uL | ALANINE AMINOTRANSFERASE [2]: 54.33 u/L | ALBUMIN [2]: 4.63 G/DL | ALKALINE PHOSPHATASE [2]: 393 u/L | ASPARTATE AMINOTRANSFERASE [2]: 80.67 u/L | BLOOD UREA NITROGEN [2]: 15.33 mg/dL | CARBON DIOXIDE [2]: 24.67 mmol/L | CHOLESTEROL [2]: 69.67 mg/dL | CREATINE PHOSPHOKINASE [2]: 265 u/L | CREATININE [2]: 0.17 mg/dL | GLUCOSE [2]: 136.67 mg/dL | LACTATE DEHYDROGENASE [2]: 184 u/L | LIPASE [2]: 9 u/L | PHOSPHORUS [2]: 10.97 mg/dL | POTASSIUM [2]: 6.64 MEQ/L | SODIUM [2]: 143.8 MEQ/L | TOTAL BILIRUBIN [2]: 0.23 mg/dL | TOTAL PROTEIN [2]: 5.83 G/DL | URIC ACID [2]: 1.97 mg/dL | ABSOLUTE BASOPHIL [3]: 0 CELLS/uL | ABSOLUTE EOSINOPHIL [3]: 183 CELLS/uL | ABSOLUTE LYMPHOCYTE [3]: 14369.67 CELLS/uL | ABSOLUTE MONOCYTE [3]: 485 CELLS/uL | ABSOLUTE SEGMENTED NEUTROPHIL [3]: 1795.67 CELLS/uL | BASOPHIL [3]: 0% | EOSINOPHIL [3]: 1% | ERYTHROCYTE COUNT [3]: 5.98 x10E6/uL | HEMATOCRIT [3]: 38.47% | HEMOGLOBIN [3]: 14.17 G/DL | LEUKOCYTE COUNT [3]: 16.83 x10E3/uL | LYMPHOCYTE [3]: 85% | MEAN CORPUSCULAR HEMOGLOBIN [3]: 23.7 pg | MEAN CORPUSCULAR HEMOGLOBIN CONCENTRATION [3]: 36.83 G/DL | MEAN CORPUSCULAR VOLUME [3]: 64.37 fL | MONOCYTE [3]: 3% | NEUTROPHIL [3]: 11% | NUCLEATED RED BLOOD CELLS [3]: 0 /100WBC | PLATELET COUNT [3]: 1425 x10E3/uL | ALANINE AMINOTRANSFERASE [3]: 42.67 u/L | ALBUMIN [3]: 4.57 G/DL | ALKALINE PHOSPHATASE [3]: 364.67 u/L | ASPARTATE AMINOTRANSFERASE [3]: 84.33 u/L | BLOOD UREA NITROGEN [3]: 18.67 mg/dL | CARBON DIOXIDE [3]: 27.67 mmol/L | CHOLESTEROL [3]: 76.67 mg/dL | CREATINE PHOSPHOKINASE [3]: 325 u/L | CREATININE [3]: 0.23 mg/dL | GLUCOSE [3]: 145 mg/dL | LACTATE DEHYDROGENASE [3]: 461.33 u/L | LIPASE [3]: 9 u/L | PHOSPHORUS [3]: 11.17 mg/dL | POTASSIUM [3]: 6.1 MEQ/L | SODIUM [3]: 143.03 MEQ/L | TOTAL BILIRUBIN [3]: 0.23 mg/dL | TOTAL PROTEIN [3]: 6.3 G/DL | URIC ACID [3]: 1.33 mg/dL

Reference: ChEMBL document CHEMBL3885881, “DrugMatrix”
